Source: patent US4794114A, “Inhibition of interleukin-1 production by monocytes and/or macrophages” (SmithKline Beckman Corporation, priority 1987, dated 1988)

Key:
[1] = system: endotoxin shock in C57B1/6 mice; type: in vivo, mouse; conditions: for protection from lethal effects of LPS/GALN: mouse, in vivo
Experimental: Mice are very resistant to the lethal effects of bacterial lipopolysaccharides (LPS). D-Galactosamine (D-GALN) induces a high degree of sensitization to the lethal effects of LPS in mice and other experimental animals. [See, Galanos et al., Proc. Natl. Acad Sci. USA., 76, 5939 (1979)]. In mice, depending on the strain and age, the sensitivity to endotoxin can be increased many thousand-fold.
A number of preliminary experiments were carried out to establish this model of lethal endotoxin shock.

[2] = system: adjuvant-induced arthritis in the rat; assay: adjuvant-induced arthritis in the rat: right leg paw edema; type: in vivo; conditions: mg/kg: Compound 1 60, indomethacin 2.0, prednisolone 10, methotrexate 0.3, D-penicillamine 50
Experimental: (§1) Adjuvant-induced arthritis in the rat is a model of systemic inflammation with characteristics similar to rheumatoid arthritis in man. […] This model was employed to assess the effect of Compound 1 in vivo on this elevated IL-1 production. Briefly, rats were injected on day 0 with Freund's complete adjuvant in the right hind leg. Drugs were prepared as a suspension in tragacanth and administered daily per os either prophylactically (days 1 to 16) or therapeutically in a short-term modality (days 14 to 16). In all cases, final administration of drug occurred at 3 hours prior to sacrifice. Spleens were removed from these rats and the adherent cells were assessed for their ability to produce IL-1 in vitro in response to stimulation by LPS.
(§2) PROPHYLACTIC TREATMENT: Drugs were administered daily p.o. as a suspensio
(§3) in tragacanth from day 1 to day 16. Final dose given 3 hrs before
(§4) TREATMENT: Drugs were administered daily p.o. as above from
(§5) day 14 to day 16. Final dose given 3 hrs before sacrifice.
(§6) ***P < 0.01 Indomethacin 2.0 mg/kg
(§7) **P < 0.05 Compound 1 60 mg/kg
(§8) *P < 0.10 Prednisolone 10 mg/kg
(§9) D-Penicillamine 50 mg/kg

[3] = system: IL-1 production by splenic adherent cells; assay: adjuvant-induced arthritis in the rat: IL-1 production by LPS-stimulated splenic adherent cells; type: in vivo; conditions: for IL-1 Production (splenic adherent cells), % normal control: mg/kg: Compound 1 60, indomethacin 2.0, prednisolone 10, methotrexate 0.3, D-penicillamine 50; for effect in adjuvant arthritic rats: short-term treatment
Experimental: as §1, §2, §3, §4, §5, §6, §7, §8, §9

splenic adherent cells = assay: adjuvant-induced arthritis in the rat: % splenic adherent cells; type: in vivo; conditions: mg/kg: Compound 1 60, indomethacin 2.0, prednisolone 10, methotrexate 0.3, D-penicillamine 50
Experimental: as §1, §2, §3, §4, §5, §6, §7, §8, §9

PGE2 = assay: in vitro prostaglandin (PGE2) synthesis by LPS-stimulated human monocytes, RIA; type: cell-based; conditions: for inhibition at 10 µM / inhibition at 1 µM / inhibition at 0.1 µM: Homo sapiens, Monocyte, read-out: % Inhibition PGE2; for inhibition at 10 µM: 10^-5 M; for inhibition at 1 µM: 10^-6 M; for inhibition at 0.1 µM: 10^-7 M
Experimental: (§10) Bacterial lipopolysaccharide (LPS) was used to induce IL-1 production by human peripheral blood monocytes. IL-1 activity was measured by its ability to stimulate a Interleukin 2 (IL-2) producing cell line (EL-4) to secrete IL-2, in concert with A23187 ionophore, according to the method of Simon et al., J. Immunol. Methods, 84, 85, (1985). Human peripheral blood monocytes were isolated and purified from either fresh blood preparations from volunteer donors, or from blood Bank buffy coats, according to the procedure of Colotta et al., J. Immunol., 132, 936 (1984). 1×10^6 of such monocytes are plated in 24-well plates at a concentration of 2 million/ml per well. The cells were allowed to adhere for 2 hours, after which time non-adherent cells were removed by gentle washing. Test compounds were then added to the cells for 1 hour (hr) before the addition of lipopolysaccharide (10 ng/ml unless otherwise noted), and the cultures were incubated at 37° C. for an additional 24 hours. At the end of the incubation period, culture supernatants were removed and clarified of cells and all debris. Culture supernatants were immediately assayed for IL-1 biological activity as well as prostaglandin and/or leukotriene concentrations by radioimmunoassay.
^(c) PGE2 was assayed using an RIA kit.

[4] = system: IL-1 production by human monocytes; assay: in vitro IL-1 production by LPS-stimulated human peripheral blood monocytes (EL-4 readout); type: cell-based; conditions: for inhibition at 10 µM / inhibition at 1 µM / inhibition at 0.1 µM: Homo sapiens, Monocyte, read-out: % Inhibition IL-1; for inhibition at 10 µM: 10^-5 M; for inhibition at 1 µM: 10^-6 M; for inhibition at 0.1 µM: 10^-7 M
Experimental: The effects of antiinflammatory/antiarthritic drugs of different classes, including Compound 1 on the in vitro production of IL-1 by human monocytes was examined.
as §10
^(a) All compounds, except chloroquine, were dissolved in absolute
ethanol at 10^-2 M, which was subsequently diluted further in tissue
assay system at doses tested. Furthermore, test samples were dialyzed
prior to testing in the IL1 assay.
In order to elucidate the mechanism by which Compound 1 mediates its anti-inflammatory activity, the ability of this compound and two closely related analog metabolites, (i.e., the analogs of Compound 1 wherein X is S(0)n and n is 1 or 2) to inhibit human IL-1 production in vitro was evaluated according to the method of Example 1. Briefly, 1×10^6 human peripheral blood monocytes were plated in 24-well plates and allowed to adhere for 1 hr at 37° C. The above compounds were added to a final concentration of 10^-5 M to 10^-8 M. The monocytes were stimulated to produce IL-1 with 1 ng/ml LPS after a 1 hr pretreatment of the cells with the respective compounds.
The inhibitory effect of additional compounds of Formula (I) on the in vitro production of IL-1 production of IL-1 by human monocytes was determined according to the procedure of Examples 1 and 2.

in vitro = type: cell-based, human; conditions: human, peripheral blood monocytes
Experimental: as §10
^(b) At doses at or above 10^-5 M, this compound exerted some

[5] = system: murine model of endotoxin shock; conditions: Hagmann et al., 1982; cited from earlier work
[6] = prophylactic, daily p.o. days 1-16
[7] = therapeutic, daily p.o. days 14-16

Structure (SMILES) | Right leg paw edema, % normal control [2, 6] | Right leg paw edema, % normal control [2, 7] | IL-1 Production (splenic adherent cells), % normal control [3, 6] | IL-1 Production (splenic adherent cells), % normal control [3, 7] | effect in adjuvant arthritic rats ([3]; therapeutic) | % Adherent Cells (splenic), % normal control (splenic adherent cells; [6]) | % Adherent Cells (splenic), % normal control (splenic adherent cells; [7]) | inhibition of prostaglandin synthesis (PGE2) | inhibition at 1 µM (PGE2) | inhibition of IL-1 production [4] | inhibition at 1 µM [4] | inhibition at 0.1 µM [4] | also measured
C[C@@H]1C[C@H]2[C@@H]3CCC4=CC(=O)C=C[C@]4(C)[C@@]3(F)[C@@H](O)C[C@]2(C)[C@@]1(O)C(=O)CO [Dexamethasone] |  |  |  |  |  |  |  |  |  |  |  |  | protection ([1]; administered 24 hours and 1 hour prior to LPS/GALN): provided protection
COc1ccc2c(c1)c(CC(=O)O)c(C)n2C(=O)c1ccc(Cl)cc1 [INDOMETHACIN, indomethacin] | 113 ± 8 % normal control | 145 ± 18 % normal control | 274 ± 100 % normal control | 330 ± 121 % normal control | no effect | 480 ± 189 % normal control | 394 ± 253 % normal control |  |  |  |  |  | 
CC(C)Cc1ccc(C(C)C(=O)O)cc1 (centres unmarked) [Ibuprofen, ibuprofen] |  |  |  |  |  |  |  | highly active in inhibiting prostaglandin synthesis | 71% | virtually no effect on IL-1 production | 0% | 0% | inhibition at 10 µM (PGE2): 97%; inhibition at 0.1 µM (PGE2): 63%; inhibition at 10 µM [4]: 9%
CN(Cc1cnc2nc(N)nc(N)c2n1)c1ccc(C(=O)N[C@@H](CCC(=O)O)C(=O)O)cc1 [METHOTREXATE, methotrexate] | 96 ± 4 % normal control | 194 ± 2 % normal control | 67 ± 56 % normal control | 436 ± 178 % normal control | no effect | 134 ± 10 % normal control | 284 ± 175 % normal control |  |  |  |  |  | 
CC(Cc1ccc(O)c(O)c1)C(C)Cc1ccc(O)c(O)c1 (centres unmarked) [NDGA, nordihydroguaiaretic acid] |  |  |  |  |  |  |  | little inhibitory effect on prostaglandin synthesis | 0% | marginally active in inhibition of IL-1 production | 33% | 31% | inhibition at 10 µM (PGE2): 25%; inhibition at 0.1 µM (PGE2): 0%; viability at 24 h, 10 µM (in vitro): ~50%; inhibition at 10 µM [4]: 88%
C[C@]12C=CC(=O)C=C1CC[C@@H]1[C@@H]2[C@@H](O)C[C@@]2(C)[C@H]1CC[C@]2(O)C(=O)CO [PREDNISOLONE, Prednisolone] | 125 ± 22 % normal control | 147 ± 18 % normal control | 168 ± 40 % normal control | 300 ± 280 % normal control |  | 184 ± 79 % normal control | 82 ± 47 % normal control |  |  |  |  |  | 
O=C1CCN(c2ccccc2)N1 [Phenidone, phenidone] |  |  |  |  |  |  |  | little inhibitory effect on prostaglandin synthesis | 0% | marginally active in inhibition of IL-1 production | 18% | 0% | protection from lethal effects of LPS/GALN [1]: protective effects
CC(=O)OC[C@H]1O[C@@H]([S-])[C@H](OC(C)=O)[C@@H](OC(C)=O)[C@@H]1OC(C)=O.CCP(CC)CC.[Au+] [auranofin] |  |  |  |  | no effect |  |  |  |  |  |  |  | 
Clc1ccc(C(c2ccc(Cl)cc2)n2cc[n+](CC(OCc3ccc(Cl)cc3Cl)c3ccc(Cl)cc3Cl)c2)cc1 (centres unmarked) [calmidazolium] |  |  |  |  |  |  |  |  |  |  |  |  | prevention of endotoxin lethality [5]: prevented endotoxin lethality
CN/C(=N/CCSCc1nc[nH]c1C)NC#N [cimetidine] |  |  |  |  |  |  |  |  |  |  |  |  | protection from lethal effects of LPS/GALN [1]: not
